Results published in patent US20240115711A1, “Novel Bifunctional Molecules For Targeted Protein Degradation” (Amphista Therapeutics Limited, priority 2020, published 2024).
Read-outs that look alike come from different tables or passages of the source. Blank lines part the entries; values can stand above or below the compound they belong to.

Legend:
mutant KRas (G12C) = target: T1, mutant KRas (G12C) (Homo sapiens, UniProt P01116, G12C); test: Assay 6 - Degradation of KRas-G12C by immunoblot (MIA-PaCa-2 cells); format: cell-based; details: after 24 h treatment with 1000 nM
T1 construct: endogenous in cells; host or cells: MIA-PaCa-2
Method: 1.6 Assay 6—Degradation of KRas-G12C by Immunoblot.
MIA-PaCa-2 cells were seeded in 6- or 12-well plates overnight prior to 24 h treatment with test compounds at the desired concentration (DMSO final concentration 0.1%). After 24 h incubation, cells were washed with PBS and lysed with RIPA buffer (Sigma) supplemented with 1 mM MgCl2, 1 U/mL Benzonase (Sigma), and 1× cOmplete Mini EDTA-free Protease Inhibitor Cocktail (Roche). Lysates were clarified by centrifugation (15,000×g, 20 min, 4° C.) and the total protein content of the supernatant was quantified using a BCA assay. Samples were prepared using equal amounts of total protein and LDS sample buffer (Invitrogen). […] Blots were visualised using a Bio-Rad ChemiDoc MP Imaging System, and band quantification was performed using Image Studio software (LiCor). […] Degradation data was plotted and analysed using Prism (Graphpad, version 8).
The degradation of target protein mutant KRas (G12C) was detected according to the procedure outlined in […] for the compound A64.

tumor cell lines [1] = details: up to 94 tumor cell lines, from Ottis et al, identical assay conditions, cited from earlier work; for # tumor cell lines Low sensitivity/Resistant: degrader GI50 < inhibitor; for # tumor cell lines Highly sensitive: degrader GI50 >3 fold more potent than inhibitor
MV4;11 cells = test: Assay 3 - MV4;11 cell viability using CellTiter-Glo assay; format: cell-based; details: Homo sapiens, 48 h incubation
Method: 1.3 Assay 3—MV4;11 Cell Viability Using CellTiter-Glo Assay
The anti-proliferative effects of representative compounds were measured using the CellTiter-Glo assay (Promega). MV4;11 cells were seeded into sterile, white, clear-bottomed 384-well cell-culture microplates (Greiner Bio-one), at 2× concentration in IMDM media and a volume of 25 μL. Test compounds were serially diluted (11-pt dose-response from 1 μM) in IMDM media to 2× concentration, then added to cells to make a final volume of 50 μL. Final DMSO concentration was 0.05%. After 48 h incubation, 25 μL of CellTiter-Glo reagent was added to each well. Following a 15 minutes incubation the luminescence signal was read on a CLARIOStar Plus. Data was processed and dose-response curves were generated using Prism 8 (Graphpad).
The impact on cell viability of MV4;11 cells was evaluated according to the procedure outlined in assay 3 for compounds A1, A2, A8 and A9.

[2] = In vivo systemic drug exposure after oral and intravenous dosing; details: female, mouse, plasma, C57BL/6 mice
Method: Test compound was administered to C57BL/6 mice, (6-8 weeks, 18-20 g, female, N=6, purchased from JH Laboratory Animal Co. with free access to food and water) at the indicated dose level via oral gavage (p.o., 10 mL/kg, 5% DMSO+95%(15% HP-β-CD in Water) vehicle, oral dosing leg) or tail vein (i.v., 5 mL/kg, 5% DMSO+95%(15% HP-β-CD in Water) vehicle, intravenous leg). The animal was restrained manually at designated time points up to 24 h, approximately 110 μL of blood sample was collected via facial vein into K2EDTA tubes. Blood sample was put on ice and centrifuged at 2000 g for 5 min to obtain plasma sample within 15 minutes which was analysed on an LC-MS/MS-19 (Triple Quad 5500) in positive ion ESI mode following sample prep and HPLC elution:
Mobile Phase: • Mobile Phase A: H2O—0.025% FA—1 mM NH4OAC • Mobile Phase B: MeOH—0.025% FA—1 mM NH4OAc
• Column: ACQUITY UPLC BEH C18 2.1*50 mm 1.7 um • Flow rate: 0.60 mL/min • Column temperature: 60° C.

HiBit-BRD4 = target: T2, HiBit-BRD4 (Homo sapiens, UniProt O60885); test: Assay 1 - Degradation of HiBit-BRD4 in HEK293; format: cell-based; details: HiBit-BRD4 HEK293, 6 h treatment
T2 construct: HEK293 containing a HiBit insertion for BRD4; endogenous in cells; host or cells: HEK293 with HiBit insertion at BRD4
Method: 1.1 Assay 1—Degradation of HiBit-BRD4 in HEK293
HEK293 containing a HiBit insertion for BRD4 were plated in 384-well tissue culture plates at a density of 8×10^4 per well in a volume of 36 μL and incubated overnight at 37° C. and 5% CO2. Wells were treated with test compounds for 6 h prior to addition of the NanoLuc substrate and reading on a […]. Degradation data was plotted and analysed using […] (Graphpad).
The degradation of target protein BRD4 was detected according to the procedure outlined in assay 1 for the following compounds.

[3] = In vivo drug exposure in the brain after systemic dosing; details: C57BL/6 mice, intravenous 5 mg/kg dose
Method: Blood collection: The animal was restrained manually at designated time points up to 24 h, approximately 110 μL of blood sample was collected via facial vein into K2EDTA tubes. Blood sample was put on ice and centrifuged at 2000 g for 5 min (4° C.) to obtain plasma sample within 15 minutes. Brain collection: The animal was euthanized under CO2. A mid-line incision was made in the animal's scalp and skin retracted. The skull overlying the brain was removed. The whole brain was collected, rinsed with cold saline, dried on filtrate paper, weighted, snap frozen by placing into dry-ice. The sample was homogenized with 3 volumes (v/w) of PBS prior to analysis. Samples were analysed on an LC-MS/MS-19 (Triple Quad 5500) in positive ion ESI mode following sample prep and HPLC elution: Mobile Phase: • Mobile Phase A: H2O—0.025% FA—1 mM NH4OAC • Mobile Phase B: MeOH—0.025% FA—1 mM NH4OAc • Column: waters BEH C18 (2.1×50 mm, 1.7 μm) • Flow rate: 0.60 mL/min • Column temperature: 60° C.

tumor cell lines [4] = test: Cancer cell panel screening, GI50 by Sulforhodamine B method; format: cell-based; details: up to 94 tumor cell lines, 72 h
Method: Cancer cell panel screening was provided as a service from OncoLead GmbH & Co. KG. After a lag phase of 48 h, each cell line was treated with six different concentrations (10^−10, 10^−9, 10^−8, 10^−7, 10^−6, 10^−5 M) of either A2 or I-BET726 for 72 h. Concentrations to give half-maximal growth inhibition (GI50) were determined using the Sulforhodamine B method. Log(GI50) values were plotted as single points (I-BET726, cross; A2, dot) superimposed on the bar graph and plotted along the right y axis. Log ratio of the GI50 determined for I-BET726 versus the GI50 determined for A2 were plotted for each cell line tested (bars, left y axis).
Where no specific GI50 value could be determined, a GI50 of at least 10^−5 M was assumed to calculate the inhibitor vs degrader ratio.
Similar studies have previously been carried out on CRBN PROTAC (dBET6) and VHL PROTAC (MZ1) (see, for example, Ottis et al, ACS Chem. Biol. 2019, 14, 2215-2223 under identical assay conditions).
Low sensitivity/resistant defined as degrader GI50<inhibitor.

T1 sequence (P01116 1-188 isoform P01116-2 G12C): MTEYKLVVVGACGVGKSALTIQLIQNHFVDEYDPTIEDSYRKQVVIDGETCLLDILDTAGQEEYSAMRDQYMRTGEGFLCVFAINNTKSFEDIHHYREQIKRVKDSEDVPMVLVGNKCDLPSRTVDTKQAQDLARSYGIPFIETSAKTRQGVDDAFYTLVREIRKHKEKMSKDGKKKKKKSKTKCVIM

Structure (SMILES): Cc1sc2c(c1C)C(c1ccc(Cl)cc1)=N[C@@H](CC(=O)NCCCCCCCCNC(=O)COc1cccc3c1C(=O)N(C1CCC(=O)NC1=O)C3=O)c1nnc(C)n1-2 (stereo partly shown) [CRBN PROTAC (dBET6), dBET6]
# tumor cell lines GI50, <1 μM (tumor cell lines [1]): 58%
# tumor cell lines Low sensitivity/Resistant (tumor cell lines [1]): 52%
# tumor cell lines Highly sensitive (tumor cell lines [1]): 29%

Structure (SMILES): CCCC(NC(=O)/C(C#N)=C/c1nccs1)c1ccc(OCC(=O)NCCOCCOCCOCCOCCOCCNC(=O)c2ccc(-c3ccc4c(c3)[C@H](Nc3ccc(Cl)cc3)C[C@H](C)N4C(C)=O)cc2)cc1 (stereo partly drawn) [Example A1, 4-((2S,4R)-1-acetyl-4-((4-chlorophenyl)amino)-2-methyl-1,2,3,4-tetrahydroquinolin-6-yl)-N-(1-(4-(1-((E)-2-cyano-3-(thiazol-2-yl)acrylamido)butyl)phenoxy)-2-oxo-6,9,12,15,18-pentaoxa-3-azaicosan-20-yl)benzamide]
IC50 (MV4;11 cells): 48 nM

Structure (SMILES): CCCC(c1ccc(OCC(=O)NCCOCCOCCOCCOCCOCCNC(=O)c2ccc(-c3ccc4c(c3)[C@H](Nc3ccc(Cl)cc3)C[C@H](C)N4C(C)=O)cc2)cc1)N(C)C(=O)/C=C/c1nccs1 (stereo partly shown) [Example A6]
DC50 (HiBit-BRD4): < 10000 nM

Structure (SMILES): Cc1ncsc1-c1ccc(CNC(=O)[C@@H]2C[C@@H](O)CN2C(=O)[C@@H](NC(=O)COCCOCCOCCNC(=O)C[C@@H]2N=C(c3ccc(Cl)cc3)c3c(sc(C)c3C)-n3c(C)nnc32)C(C)(C)C)cc1 [VHL PROTAC (MZ1), MZ1]
# tumor cell lines GI50, <1 μM (tumor cell lines [1]): 83%
# tumor cell lines Low sensitivity/Resistant (tumor cell lines [1]): 26%
# tumor cell lines Highly sensitive (tumor cell lines [1]): 47%

The next lines start with results.

residual KRas (G12C) abundance (mutant KRas (G12C)): less than 50%
Structure (SMILES): C=CC(=O)N1CCN(c2nc(OC[C@@H]3CCCN3CCCCNC(=O)CCc3ccc(C(CCC)N(C)C(=O)/C(C#N)=C/c4nccs4)cc3)nc3c2CCN(c2cccc4cccc(Cl)c24)C3)C[C@@H]1CC#N (stereo partly drawn) [Example A64, (E)-N-[1-[4-[3-[4-[(2S)-2-[[7-(8-chloro-1-naphthyl)-4-[(3S)-3-(cyanomethyl)-4-prop-2-enoyl-piperazin-1-yl]-6,8-dihydro-5H-pyrido[3,4-d]pyrimidin-2-yl]oxymethyl]pyrrolidin-1-yl]butylamino]-3-oxo-propyl]phenyl]butyl]-2-cyano-N-methyl-3-thiazol-2-yl-prop-2-enamide]

bioavailability ([2]; 10 mg/kg oral vs 1 mg/kg intravenous): 7.2%
AUC(0-inf) ([2]; intravenous 1 mg/kg dose): 841 ng·h/mL
AUC(0-inf) ([2]; oral 10 mg/kg dose): 605 ng·h/mL
Structure (SMILES): CCCC1c2ccc(OCCN3CCC(C(=O)Nc4ncc(SCc5ncc(C(C)(C)C)o5)s4)CC3)cc2CCN1C(=O)/C(C#N)=C/c1cccc(Br)n1 (stereo not shown) [Example A37]

brain AUC(0-INF) [3]: 845 ng·h/mL
Kp ([3]; female, mouse, brain and plasma, ratio of AUC(0-INF)): 0.6
AUC(0-inf) ([3]; female, mouse, plasma): 1340 ng·h/mL
Structure (SMILES): CCCC(c1ccc(CCCN2CCC(CNc3ncc(SCc4ncc(C(C)(C)C)o4)s3)CC2)cc1)N(C)C(=O)/C(C#N)=C/c1nc2ccccc2s1 (stereo not shown) [Example A39, 3-(benzo[d]thiazol-2-yl)-N-(1-(4-(3-(4-(((5-(((5-(tert-butyl)oxazol-2-yl)methyl)thio)thiazol-2-yl)amino)methyl)piperidin-1-yl)propyl)phenyl)butyl)-2-cyano-N-methylacrylamide]

# tumor cell lines GI50, <1 μM (tumor cell lines [4]): 100%
IC50 (MV4;11 cells): 2 nM
Structure (SMILES): CCCC(c1ccc(OCC(=O)NCCOCCOCCOCCOCCOCCNC(=O)c2ccc(-c3ccc4c(c3)[C@H](Nc3ccc(Cl)cc3)C[C@H](C)N4C(C)=O)cc2)cc1)N(C)C(=O)/C(C#N)=C/c1nccs1 (stereo partly drawn) [Example A2, 4-((2S,4R)-1-acetyl-4-((4-chlorophenyl)amino)-2-methyl-1,2,3,4-tetrahydroquinolin-6-yl)-N-(1-(4-(1-((E)-2-cyano-N-methyl-3-(thiazol-2-yl)acrylamido)butyl)phenoxy)-2-oxo-6,9,12,15,18-pentaoxa-3-azaicosan-20-yl)benzamide]
# tumor cell lines Highly sensitive (tumor cell lines [4]; highly sensitive = degrader GI50 >3 fold more potent than inhibitor): 66%
# tumor cell lines Low sensitivity/Resistant (tumor cell lines [4]; low sensitivity/resistant = degrader GI50 < inhibitor): 15%
